From US8865748B2, “Compounds and compositions for stabilizing hypoxia inducible factor-2 alpha as a method for treating cancer” (Akebia Therapeutics Inc., priority 2011, dated 2014)

Legend:
B16F10 melanoma tumors = assay: Murine melanoma tumor model (B16F10 in C57BL/6 mice); type: in vivo
Protocol: Mice were injected with 1×10^5 B16F10 murine melanoma cells murine subcutaneously on the left flank. Once tumors become palpable (approximately 5 days), mice were randomly allocated to receive treatment with either: 20% polyethylene glycol (PEG) in 5% […] (vehicle control for the disclosed HIF-2α stabilizer) and PBS (vehicle control for GM-CSF), 20% PEG and GM-CSF (100 ng per mouse in a 50 μL volume), the disclosed HIF-2α stabilizer (17.5 mg/kg in a 100 μL volume) and PBS, or the disclosed HIF-2α stabilizer and GM-CSF (same doses). The PBS and GM-CSF were administered intratumorally, while the 20% PEG and the disclosed HIF-2α stabilizer were administered intraperitoneally. Mice were treated 3 times per week until tumors reached a size of 20 mm in any dimension (approximately 2.5 weeks), at which point mice were euthanized, in accordance with institutional policy. Tumor diameters were measured 3 times per week with calipers, and tumor volumes were calculated as follows: Tumor volume=0.5×[(large diameter)×(small diameter)^2].
6-8-week-old C57BL/6 mice were injected with 1×10^5 B16F10 murine melanoma cells murine subcutaneously on the left flank. Once tumors become palpable (approximately 5 days), mice were randomly allocated to receive treatment with either: 20% PEG-400 in 5% sucrose (vehicle for disclosed HIF-2α stabilizer) and PBS (vehicle for GM-CSF), 20% PEG-400 and GM-CSF (100 ng per mouse in a 50 μL volume), disclosed HIF-2α stabilizer (17.5 mg/kg mouse weight in a 100 μL volume) and PBS, or the disclosed HIF-2α stabilizer and GM-CSF (same concentrations). The disclosed HIF-2α stabilizer (or the vehicle control) was administered intraperitoneally, while GM-CSF (or the vehicle control) was administered intratumorally. Mice were treated […] 3 times per week until tumors reached a size of 20 mm in any dimension (approximately 2.5 weeks), at which point mice were be euthanized, in accordance with institutional policy. Tumor diameters were measured 3 times per week with calipers, and tumor volumes will be calculated as follows: Tumor volume=0.5×[(large diameter)×(small diameter)^2]. For experiments analyzing the effect of neutralizing sVEGFR-1 in combination with disclosed HIF-2α stabilizer treatment, mice were treated intraperitoneally 3×/week with either disclosed HIF-2α stabilizer or vehicle control, and intratumorally with either 4 μg anti-VEGFR-1 neutralizing antibody (R&D Systems) or 4 μg polyclonal goat IgG isotype control (Santa Cruz Biotechnology) in a 50 μL volume. All protocols were approved by the Ohio State University Animal Care and Use Committee, and mice were treated in accordance with institutional guidelines for animal care.
The ANOVA test was used to compare independent measurements between multiple treatment groups. The data was log-transformed to normalize the variance across groups. P-values were adjusted using the Holm's procedure to conserve the type I error at 0.05 due to the multiple comparisons. For tumor growth data, changes in tumor volume over time were assessed via a longitudinal model. Tumor values were log-transformed, and estimated slopes (changes in tumor volume over time) were calculated with 95% confidence intervals. Estimated differences in tumor volume were calculated by a random-effects regression of the longitudinal data. For all analyses, p≦0.05 was considered statistically significant.
To confirm that the modulation of tumor growth and angiogenesis was due to sVEGFR-1 production in response to the disclosed HIF-2α stabilizer, mice were treated with the disclosed HIF-2α stabilizer in the presence or absence of an sVEGFR-1 neutralizing Ab.
6-8-week-old C57BL/6 mice or SCID mice were injected with 1×10^5 B16F10 murine melanoma cells or 1×10^6 A375 human melanoma cells, respectively, subcutaneously on the left flank. […]

VEGF [1] = assay: VEGF mRNA within B16F10 tumors (real-time PCR); type: in vivo, mice; conditions: FIG. 13B; p=0.490
Protocol: (§1) Human monocytes were left untreated or were stimulated with 100 ng/mL GM-CSF at normoxia or at 0.5% O2. At various time-points, cells were harvested in Trizol reagent (Invitrogen) and RNA was extracted in chloroform and then purified using the RNeasy Minikit (Qiagen). In murine studies, organs harvested at the time of euthanasia were flash-frozen in liquid nitrogen, pulverized in liquid nitrogen, and then dissolved in Trizol. cDNA was generated from 1 μg of RNA using the Superscript First Strand Synthesis System (Invitrogen) and used for real-time PCR using previously described primers and SYBR Green PCR Master Mix (Applied Biosciences), according to the manufacturer's instructions. Data were analyzed according to the comparative threshold method and normalized against the β-actin internal control transcript. Results are semi-quantitative and represent the fold difference in transcript levels in a particular sample as compared with levels in untreated cells from the same donor.
6-8-week-old C57BL/6 mice were injected with 1×10^5 B16F10 murine melanoma cells murine subcutaneously on the left flank. […] Tumor diameters were measured 3 times per week with calipers, and tumor volumes will be calculated as follows: Tumor volume=0.5×[(large diameter)×(small diameter)^2]. […]

sVEGFR-1 = sVEGFR-1 production by human peripheral blood monocytes (ELISA, real-time PCR); type: cell-based; conditions: GM-CSF stimulation; FIG. 11D
Protocol: (§2) Human peripheral blood mononuclear cells (PBMCs) were isolated from fresh peripheral blood leukocyte source packs (American Red Cross, Columbus Ohio) by density gradient centrifugation over Lymphocyte Separation Medium (Cellgro). Monocytes were purified from total PBMCs by layering over FBS. Monocytes were cultured in endotoxin-free RPMI-1640 supplemented with 1% fetal bovine serum (FBS), 0.1% human serum albumin (HSA), and 10 μg/mL of the endotoxin inhibitor polymyxin B. In some experiments, freshly isolated monocytes were differentiated into macrophages by three-day culture in media containing 10% FBS, 1% PSA (penicillin G sodium, streptomycin sulfate, and amphotericin B), and 20 ng/mL M-CSF. Macrophages were serum-starved for 2 hours prior to stimulation. Monocytes or monocyte-derived macrophages were treated for 24 hours with 10 ng/mL GM-CSF, 10 μM disclosed HIF-2α stabilizer, or an equivalent volume of the vehicle controls (PBS or DMSO, respectively). Cell-free culture supernatants were harvested and analyzed for VEGF or sVEGFR-1 by ELISA (R&D Systems).
Human monocytes were left untreated or were stimulated with 100 ng/mL GM-CSF at normoxia or at 0.5% O2. At various time-points, cells were harvested in Trizol reagent (Invitrogen) and RNA was extracted in chloroform and then purified using the RNeasy Minikit (Qiagen). […] Data were analyzed according to the comparative threshold method and normalized against the β-actin internal control transcript. Results are semi-quantitative and represent the fold difference in transcript levels in a particular sample as compared with levels in untreated cells from the same donor.
Since monocyte production of VEGF was dependent on HIF-1α, the inventors herein determined whether selective stabilization of HIF-1α via inhibition of PHD2 would increase monocyte production of VEGF but not sVEGFR-1. […]

VEGF [2] = assay: VEGF production by human peripheral blood monocytes (ELISA, real-time PCR); type: cell-based; conditions: FIG. 11C
Protocol: as §2, §1
VEGF protein was undetectable in the supernatants of GM-CSF-stimulated monocytes, due to neutralization of VEGF by sVEGFR-1 (FIG. 11C).
Since monocyte production of VEGF was dependent on HIF-1α, the inventors herein determined whether selective stabilization of HIF-1α via inhibition of PHD2 would increase monocyte production of VEGF but not sVEGFR-1. In order to make such determination, human peripheral blood monocytes were stimulated with GM-CSF in the presence of a selective inhibitor of PHD2 which results in the stabilization of HIF-1α.

GM-CSF: granulocyte-macrophage colony-stimulating factor
tumor growth (tumor volume) (B16F10 melanoma tumors; FIG. 3, stabilizer 17 mg/kg I.P., GM-CSF 100 ng per mouse I.T., 3 times per week, vs. PBS control): reduction in tumor volume
tumor volume reduction, GM-CSF administered I.T. vs. I.P. (B16F10 melanoma tumors; FIG. 4, stabilizer 17 mg/kg delivered I.P. in all cases, no control group): greater reduction of tumor volume
average tumor volumes vs. vehicle controls (B16F10 melanoma tumors; day 16 of treatment, GM-CSF 100 ng/mouse intratumoral or stabilizer 17.5 mg/kg intraperitoneal, 3x/week, each p<0.001): significantly smaller
levels of intratumoral VEGF over vehicle control-treated mice (VEGF [1]): failed to increase
monocyte production of sVEGFR-1 (sVEGFR-1): induced
VEGF production, transcript levels by real-time PCR (VEGF [2]; GM-CSF stimulation): increased
VEGF protein in supernatants (VEGF [2]; GM-CSF-stimulated monocytes, ELISA detects free VEGF only): undetectable
